Results from patent publication US9718812B2, “Substituted thiazole or oxazole P2X7 receptor antagonists” (Axxam S.P.A., priority 2014, dated 2017).

Columns and labels:
Type in all cases: cell-based
[1] = target: P2X7 receptor (hP2X7) (Homo sapiens (Human), UniProt Q99572); experiment: Screen Quest Fluo-8 No Wash Calcium Assay (Bz-ATP-induced Ca2+ influx, FLIPR TETRA); settings: HEK-293 cells stably transfected with P2X7 receptor, Fluo-8 calcium, Low Divalent Cation Assay Buffer
Method in brief: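 HEK-293 cells stably transfected with P2X7, pre-loaded with Fluo-8 NW dye for 1 h at RT, then test compounds injected. Ca2+ influx on Bz-ATP stimulation followed as kinetic fluorescence (ex 488 nm, em 515-575 nm) over five minutes.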

[2] = target: T1, P2X7 receptor (Homo sapiens (Human), UniProt Q99572); experiment: YO-PRO-1 Uptake Assay (large pore form, Bz-ATP stimulated); settings: HEK-293 cells stably transfected with P2X7 receptor; Bz-ATP EC80 (30 μM); 5 μM YO-PRO-1
Method in brief: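 HEK-293 cells stably expressing P2X7 were preloaded with 5 μM YO-PRO-1 in low divalent cation buffer (0.3 mM Ca2+, 0 mM Mg2+). Compounds were added for 5 min before Bz-ATP at EC80 (30 μM, 3× concentration) and dye-uptake fluorescence was followed for 60 min. IC50 from percent inhibition relative to reference antagonist A438079.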

[3] = target: T1, P2X7 receptor; experiment: human P2X7 channel assay by automated patch-clamp (QPatch 16X); settings: HEK-293 cells expressing P2X7 channels, 100 microM BzATP, held at -80 mV, read-out: hP2X7 (IC50; nM)
Protocol: In order to directly monitor the block of P2X7 channel, an electrophysiological assay was developed and implemented on the QPatch 16X automated electrophysiology instrument.
HEK-293 cells expressing the P2X7 channels were cultured in modified EMEM.
72 hours before experiment, 5 million cells were seeded onto T225 flasks. Just before the experiment cells were washed twice, detached from the flask with trypsin-EDTA, re-suspended in the suspension solution and placed on the QPatch 16x.
The compounds (20 mM in a 100% DMSO) stored at −20° C. were prepared the day of the experiment (a first dilution 1:20 in 100% DMSO to prepare a 1 mM stock solution, then a 1 microM solution in external solution+a serial dilution 1:10).
The standard whole-cell voltage clamp experiments were performed at room temperature. For these experiments the multihole technology was used and the data were sampled at 2 KHz.
The intracellular solution contained (mM) 135 CsF, 10 NaCl, 1 EGTA, 10 HEPES, (pH 7.2 with CsOH) whereas the extracellular contained (mM) 145 NaCl, 4 KCl, 0.5 MgCl2, 1 CaCl2, 10 HEPES, 10 Glc (pH 7.4 with NaOH).
After establishment of the seal and the passage in the whole cell configuration, the cells were held at −80 mV. The P2XR7 current was evoked by applying 100 microM of BzATP alone (4 times) and then in the presence increasing concentrations of the compound under investigation (1, 10, 100 and 1000 nM).
The pre-incubation periods 5 to 8 contain increasing concentrations of the compound of interest (1, 10, 100 and 1000 nM), as illustrated in Figure (application protocol).
The maximal inward current evoked by BzATP in absence or presence of increasing concentrations of the compounds under investigation was measured and normalized.
Y: normalized response, 100% down to 0%, decreasing as X increases.
Log IC50: same log units as X
HillSlope: slope factor or HS, unitless

T1 sequence (Q99572 whole entry): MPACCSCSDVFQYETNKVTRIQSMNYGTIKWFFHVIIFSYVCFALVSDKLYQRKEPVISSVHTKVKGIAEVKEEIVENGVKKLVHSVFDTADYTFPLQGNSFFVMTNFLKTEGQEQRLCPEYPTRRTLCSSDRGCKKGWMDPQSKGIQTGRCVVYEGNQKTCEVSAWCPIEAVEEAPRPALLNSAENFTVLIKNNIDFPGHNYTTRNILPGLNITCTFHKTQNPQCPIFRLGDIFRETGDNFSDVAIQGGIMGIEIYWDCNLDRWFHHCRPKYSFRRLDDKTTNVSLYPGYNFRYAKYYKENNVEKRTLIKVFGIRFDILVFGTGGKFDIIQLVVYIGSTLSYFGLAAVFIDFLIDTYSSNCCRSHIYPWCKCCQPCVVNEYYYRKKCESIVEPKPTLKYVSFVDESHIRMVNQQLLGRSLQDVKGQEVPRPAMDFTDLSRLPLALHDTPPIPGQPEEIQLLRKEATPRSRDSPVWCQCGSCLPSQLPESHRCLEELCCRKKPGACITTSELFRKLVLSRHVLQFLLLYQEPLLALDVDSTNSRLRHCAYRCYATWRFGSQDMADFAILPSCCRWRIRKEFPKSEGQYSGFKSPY
Chain of P2X7 receptor (hP2X7) (Q99572 whole entry): as above

Row | Structure (SMILES) | IC50 [1] | IC50 [2] | IC50 [3]
1 | O=C(NCC(c1cnco1)N1CCC(F)(F)CC1)c1cc(-c2ncc(F)cn2)ccc1Cl (centres unmarked) [Compound 47, 2-chloro-N-[2-(4,4-difluoropiperidin-1-yl)-2-(1,3-oxazol-5-yl)ethyl]-5-(5-fluoropyrimidin-2-yl)benzamide] | 43 nM | 36 nM | 33.9 nM
2 | Cc1ncsc1C(CNC(=O)c1c(F)cccc1Cl)N1CCC(OCc2ccccc2)CC1 (centres unmarked) [Compound 59, N-{2-[4-(benzyloxy)piperidin-1-yl]-2-(4-methyl-1,3-thiazol-5-yl)ethyl}-2-chloro-6-fluorobenzamide] | 242 nM | 55 nM | 69.2 nM
3 | Cc1cccc(C)c1C(=O)NCC(c1cncs1)N1CCC(F)(F)CC1 (centres unmarked) [Compound 14, N-[2-(4,4-difluoropiperidin-1-yl)-2-(1,3-thiazol-5-yl)ethyl]-2,6-dimethylbenzamide] | 27 nM | 24 nM | 22.7 nM
4 | Cc1ncc(C(CNC(=O)c2cc(-c3ncc(F)cn3)ccc2Cl)N2CCC(F)(F)CC2)s1 (racemic) [Compound 61, 2-chloro-N-[2-(4,4-difluoropiperidin-1-yl)-2-(2-methyl-1,3-thiazol-5-yl)ethyl]-5-(5-fluoropyrimidin-2-yl)benzamide] | 280 nM | 124 nM | 56.3 nM
5 | Cc1ncc(C(CNC(=O)c2c(C)cccc2Cl)N2CCC(F)(F)CC2)s1 (centres unmarked) [Compound 39, 2-chloro-N-[2-(4,4-difluoropiperidin-1-yl)-2-(2-methyl-1,3-thiazol-5-yl)ethyl]-6-methylbenzamide] | 28 nM | 18 nM | 61.9 nM
6 | O=C(NCC(c1scnc1C(F)(F)F)N1CCC(F)(F)CC1)c1c(F)cccc1Cl (centres unmarked) [Compound 67, 2-chloro-N-[2-(4,4-difluoropiperidin-1-yl)-2-[4-(trifluoromethyl)-1,3-thiazol-5-yl]ethyl]-6-fluorobenzamide] | 108 nM | 287 nM | 117 nM
7 | Cc1ncsc1C(CNC(=O)c1c(F)cccc1Cl)N1CCc2ccccc2C1 (centres unmarked) [Compound 29, 2-chloro-6-fluoro-N-[2-(4-methyl-1,3-thiazol-5-yl)-2-(1,2,3,4-tetrahydroisoquinolin-2-yl)ethyl]benzamide] | 130 nM | 90 nM | 36.1 nM
8 | Cc1ncsc1C(CNC(=O)c1c(F)cccc1Cl)N1CCOCC1 (centres unmarked) [Compound 35, 2-chloro-6-fluoro-N-[2-(4-methyl-1,3-thiazol-5-yl)-2-(morpholin-4-yl)ethyl]benzamide] | 469 nM | 4080 nM | 947 nM
9 | Cc1ncsc1C(CNC(=O)c1c(F)cccc1Cl)N1CCC(Oc2ccccc2)CC1 (centres unmarked) [Compound 60, 2-chloro-6-fluoro-N-[2-(4-methyl-1,3-thiazol-5-yl)-2-(4-phenoxypiperidin-1-yl)ethyl]benzamide] | 188 nM | 79 nM | 58.9 nM
10 | Cc1ncsc1C(CNC(=O)c1cc(-c2ncc(F)cn2)ccc1Cl)N1CCCC(F)(F)C1 (centres unmarked) [Compound 66, 2-chloro-N-[2-(3,3-difluoropiperidin-1-yl)-2-(4-methyl-1,3-thiazol-5-yl)ethyl]-5-(5-fluoropyrimidin-2-yl)benzamide] | 22 nM | 58 nM | 82.5 nM
11 | Cc1ncoc1C(CNC(=O)c1ccc(-c2ncc(F)cn2)cc1Cl)N1CCc2ccccc2C1 (centres unmarked) [Compound 57, 2-chloro-4-(5-fluoropyrimidin-2-yl)-N-[2-(4-methyl-1,3-oxazol-5-yl)-2-(1,2,3,4-tetrahydroisoquinolin-2-yl)ethyl]benzamide] | 214 nM | 197 nM | 71 nM
12 | O=C(NCC(c1scnc1C(F)(F)F)N1CCC(F)(F)CC1)c1cc(-c2ncc(F)cn2)ccc1Cl (centres unmarked) [Compound 68] | 103 nM | 181 nM | 63.1 nM

Second part, the compound after the results:

Row | IC50 [1] | IC50 [2] | IC50 [3] | Structure (SMILES)
13 | 60 nM | 34 nM | 57.1 nM | O=C(NCC(c1scnc1C(F)F)N1CCC(F)(F)CC1)c1cc(-c2ncc(F)cn2)ccc1Cl (centres unmarked) [Compound 102, 2-chloro-N-{2-[4-(difluoromethyl)-1,3-thiazol-5-yl]-2-(4,4-difluoropiperidin-1-yl)ethyl}-5-(5-fluoropyrimidin-2-yl)benzamide]
14 | 36 nM | 28 nM | 52.1 nM | O=C(NCC(c1cnc(C2CC2)s1)N1CCC(F)(F)CC1)c1c(F)cccc1Cl (centres unmarked) [Compound 88, 2-chloro-N-[2-(2-cyclopropyl-1,3-thiazol-5-yl)-2-(4,4-difluoropiperidin-1-yl)ethyl]-6-fluorobenzamide]
15 | 30 nM | 60 nM | 78.1 nM | Cc1ncsc1C(CNC(=O)c1cc(-c2cnccn2)ccc1Cl)N1CCC(F)(F)CC1 (centres unmarked) [Compound 72, 2-chloro-N-[2-(4,4-difluoropiperidin-1-yl)-2-(4-methyl-1,3-thiazol-5-yl)ethyl]-5-(pyrazin-2-yl)benzamide]
16 | 1760 nM |  | 183 nM | Cc1ncsc1C(CN(C)C(=O)c1cc(-c2ncc(F)cn2)ccc1Cl)N1CCC(F)(F)CC1 (centres unmarked) [Compound 77, 2-chloro-N-[2-(4,4-difluoropiperidin-1-yl)-2-(4-methyl-1,3-thiazol-5-yl)ethyl]-5-(5-fluoropyrimidin-2-yl)-N-]
17 | 32 nM | 183 nM | 58.4 nM | Cc1ncsc1C(CNC(=O)c1cc(-c2ncc(F)cn2)ccc1F)N1CCC(F)(F)CC1 (centres unmarked) [Compound 70, N-[2-(4,4-difluoropiperidin-1-yl)-2-(4-methyl-1,3-thiazol-5-yl)ethyl]-2-fluoro-5-(5-fluoropyrimidin-2-yl)benzamide]
18 | 73 nM | 22 nM | 65.7 nM | Cc1ncc(C(CNC(=O)c2cc(-c3ncc(F)cn3)ccc2Cl)N2CCC(F)(F)CC2)s1 (single isomer, unassigned; (+)) [Compound 127, (+)-2-chloro-N-[2-(4,4-difluoro-piperidin-1-yl)-2-(2-methylthiazol-5-yl)ethyl]-5-(5-fluoropyrimidin-2-yl)benzamide]
19 | 55 nM | 87 nM | 65.2 nM | Cc1cccc(-c2ccc(Cl)c(C(=O)NCC(c3scnc3C)N3CCC(F)(F)CC3)c2)n1 (centres unmarked) [Compound 74, 2-chloro-N-[2-(4,4-difluoropiperidin-1-yl)-2-(4-methyl-1,3-thiazol-5-yl)ethyl]-5-(6-methylpyridin-2-yl)benzamide]
